Laboratory results from patent EP0958835A1, “PREVENTIVE/REMEDY FOR FREQUENT URINATION AND URINARY INCONTINENCE” (Kissei Pharmaceutical Co., Ltd., priority 1996, dated 1998).

Tested on: human bladder smooth muscle
Experiment: Relaxing effect on resting tension of isolated human bladder smooth muscle strips
Format: cell-based
Settings: drug added cumulatively about every 5 minutes, 0 % = 10^-5 M forskolin, Figure 1
Experimental: Measurement of the contractile force of human bladder smooth muscle strips (1) Smooth muscle preparations Human bladders were obtained from patients undergoing cystectomy and were carefully dissected free from the surrounding fat and mucosa. Preparations were prepared by cutting the bladder smooth muscle longitudinally into about 1.5 cm in length and about 3 mm in width and used. […] Conditions for measurement; The bathing solution was maintained at 37 °C and gassed with a mixture of 95 % O2 and 5 % CO2. Drug Treatment; The drug was cumulatively added about every 5 minutes. Evaluation of the drug effects; The drug-induced relaxation was evaluated. The tension before the drug treatment is indicated as 100 %, and the tension after treatment with 10^-5 M forskolin which produces maximal bladder relaxation is indicated as 0 %. According to the method described above, the bladder relaxing effects of the following drugs were measured using human bladder smooth muscle.

CC(C)(C)NCC(O)COc1cccc2[nH]c(=O)[nH]c12.Cl (racemic) [CGP-12,177A hydrochloride, (±)-4-[3-[(1,1-dimethylethyl)-amino]-2-hydroxypropoxy]-1,3-dihydro-2H-benzimidazol-2-on hydrochloride]
relaxing effects on bladder smooth muscle: apparent relaxing effects

CC(C)NCC(O)c1ccc(O)c(O)c1 (centres unmarked) [isoproterenol]
relaxing effects on bladder smooth muscle: apparent relaxing effects
